From patent publication US6987114B1, “Antiviral pyrimidinedione derivatives and process for the preparation thereof” (Samjin Pharmaceutical Co., Ltd, priority 1999, dated 2006)
≈ marks a conversion by molar mass, not a printed value. Read-outs that look alike come from different tables or passages of the source.

Experiments:
HIV = experiment: microbe, parasite or virus in culture; assay type: cell-based
Protocol: Anti-HIV activity tests in vitro of the compounds according to the present invention were performed as described in J. Med. Chem, 34, 357, 1991. Inhibition by the compounds of virus-induced cytotoxic effect in MT-4 cells was measured as follows.
(§1) MT-4 cells were suspended in culture media at 2.5×10^5 cells/ml and infected with 1000 CCID50 (50% cell culture infective dose) of HIV. Immediately after virus infection, 100 μl of cell suspension was brought into each well of a flat-bottomed microtitray containing various concentrations of the test compounds. After 4 or 5 days incubation at 37° C., efficacy of the compounds was determined by the MTT method. Cytotoxicity of the compounds was assessed in parallel with their antiviral activity, based on viability of mock-infected host cells as determined by the MTT method.

mock-infected MT-4 cells = experiment: Cytotoxicity based on viability of mock-infected host cells (MTT method); assay type: cell-based; details: mock-infected MT-4 cells, MTT method, 4 or 5 days at 37° C.
Protocol: as §1

[1] = Human immunodeficiency virus 1, MT4, read-out: ED50
[2] = Human immunodeficiency virus 1, MT4, HIV-infected MT-4 cells, MTT method, 4 or 5 days at 37° C., read-out: ED50 (the source's name)

Structure (SMILES)	EC50 (HIV; [1]) [µg/mL]	CD50 (mock-infected MT-4 cells) [µg/mL]	melting point [°C]	EC50 (HIV; [2]) [µg/mL]
CCc1c(Sc2cc(C)cc(C)c2)n(Cc2cc(C)cc(C)c2)c(=O)[nH]c1=O [Example 49, 1-(3,5-Dimethylbenzyl)-5-ethyl-6-(3,5-dimethylphenyl)thio-2,4-pyrimidinedione]	0.014 (≈ 0.0355 µM)	7.48	180 to 182	–
Cc1cc(C)cc(Cn2c(Sc3cc(C)cc(C)c3)c(C(C)C)c(=O)[nH]c2=O)c1 [Example 50, 1-(3,5-Dimethylbenzyl)-5-isopropyl-6-(3,5-dimethylphenyl)thio-2,4-pyrimidinedione]	0.015 (≈ 0.0367 µM)	8.70	164 to 166	–
CCc1c(Oc2cc(C)cc(C)c2)n(Cc2cc(C)cc(C)c2)c(=O)[nH]c1=O [Example 51, 1-(3,5-Dimethylbenzyl)-5-ethyl-6-(3,5-dimethylphenoxy)-2,4-pyrimidinedione]	0.13 (≈ 0.343 µM)	8.01	130 to 132	–
Cc1cc(C)cc(Cn2c(Oc3cc(C)cc(C)c3)c(C(C)C)c(=O)[nH]c2=O)c1 [Example 52, 1-(3,5-Dimethylbenzyl)-5-isopropyl-6-(3,5-dimethyl-phenoxy)-2,4-pyrimidinedione]	0.098 (≈ 0.25 µM)	8.20	175 to 177	–
CCc1c(C(=O)c2cc(C)cc(C)c2)n(Cc2cc(C)cc(C)c2)c(=O)[nH]c1=O [Example 53, 1-(3,5-Dimethylbenzyl)-5-ethyl-6-(3,5-dimethylbenzoyl)-2,4-pyrimidinedione]	0.014 (≈ 0.0359 µM)	2.50	188 to 190	–
Cc1cc(C)cc(Cn2c(C(=O)c3cc(C)cc(C)c3)c(C(C)C)c(=O)[nH]c2=O)c1 [Example 54, 1-(3,5-Dimethylbenzyl)-5-isopropyl-6-(3,5-dimethylbenzoyl)-2,4-pyrimidinedione]	0.014 (≈ 0.0346 µM)	7.10	228 to 230	–
CCc1c(Sc2cc(C)cc(C)c2)n(Cc2cc(OC)cc(OC)c2)c(=O)[nH]c1=O [Example 55, 1-(3,5-Dimethoxybenzyl)-5-ethyl-6-(3,5-dimethylphenyl)thio-2,4-pyrimidinedione]	–	10.8	181 to 183	0.071 (≈ 0.166 µM)
COc1cc(Cn2c(Sc3cc(C)cc(C)c3)c(C(C)C)c(=O)[nH]c2=O)cc(OC)c1 [Example 56, 1-(3,5-Dimethoxybenzyl)-5-isopropyl-6-(3,5-dimethyl-phenyl)thio-2,4-pyrimidinedione]	–	11.34	157 to 160	0.21 (≈ 0.477 µM)
CCc1c(Oc2cc(C)cc(C)c2)n(Cc2cc(OC)cc(OC)c2)c(=O)[nH]c1=O [Example 57, 1-(3,5-Dimethoxybenzyl)-5-ethyl-6-(3,5-dimethylphenoxy)-2,4-pyrimidinedione]	–	36.80	154 to 156	1.37 (≈ 3.34 µM)
COc1cc(Cn2c(Oc3cc(C)cc(C)c3)c(C(C)C)c(=O)[nH]c2=O)cc(OC)c1 [Example 58, 1-(3,5-Dimethoxybenzyl)-5-isopropyl-6-(3,5-dimethylphenoxy)-2,4-pyrimidinedione]	–	>100.00	162 to 164	0.51 (≈ 1.2 µM)
CCc1c(C(=O)c2cc(C)cc(C)c2)n(Cc2cc(OC)cc(OC)c2)c(=O)[nH]c1=O [Example 59, 1-(3,5-Dimethoxybenzyl)-5-ethyl-6-(3,5-dimethylbenzoyl)-2,4-pyrimidinedione]	–	69.00	208 to 210	0.31 (≈ 0.734 µM)
COc1cc(Cn2c(C(=O)c3cc(C)cc(C)c3)c(C(C)C)c(=O)[nH]c2=O)cc(OC)c1 [Example 60, 1-(3,5-Dimethoxybenzyl)-5-isopropyl-6-(3,5-dimethyl-benzoyl)-2,4-pyrimidinedione]	–	12.09	220 to 222	0.23 (≈ 0.527 µM)
CCc1c(Sc2cc(C)cc(C)c2)n(Cc2cc(C(F)(F)F)cc(C(F)(F)F)c2)c(=O)[nH]c1=O [Example 61, 1-[3,5-Bis(trifluoromethyl)benzyl]-5-ethyl-6-(3,5-dimethyl-phenyl)thio-2,4-pyrimidinedione]	–	>100.00	212 to 213	> 100
Cc1cc(C)cc(Sc2c(C(C)C)c(=O)[nH]c(=O)n2Cc2cc(C(F)(F)F)cc(C(F)(F)F)c2)c1 [Example 62, 1-[3,5-Bis(trifluoromethyl)benzyl]-5-isopropyl-6-(3,5-dimethylphenyl)thio-2,4-pyrimidinedione]	–	>100.00	183 to 185	> 100
CCc1c(Oc2cc(C)cc(C)c2)n(Cc2cc(C(F)(F)F)cc(C(F)(F)F)c2)c(=O)[nH]c1=O [Example 63, 1-[3,5-Bis(Trifluoromethyl)benzyl]-5-ethyl-6-(3,5-dimethyl-phenoxy)-2,4-pyrimidinedione]	–	>100.00	183 to 185	> 100
Cc1cc(C)cc(Oc2c(C(C)C)c(=O)[nH]c(=O)n2Cc2cc(C(F)(F)F)cc(C(F)(F)F)c2)c1 [Example 64, 1-[3,5-Bis(Trifluoromethyl)benzyl]-5-isopropyl-6-(3,5-dimethylphenoxy)-2,4-pyrimidinedione]	–	>100.00	182 to 183	> 100
CCc1c(C(=O)c2cc(C)cc(C)c2)n(Cc2cc(C(F)(F)F)cc(C(F)(F)F)c2)c(=O)[nH]c1=O [Example 65, 1-[3,5-Bis(Trifluoromethyl)benzyl]-5-ethyl-6-(3,5-dimethyl-benzoyl)-2,4-pyrimidinedione]	–	>100.00	241 to 243	> 100
Cc1cc(C)cc(C(=O)c2c(C(C)C)c(=O)[nH]c(=O)n2Cc2cc(C(F)(F)F)cc(C(F)(F)F)c2)c1 [Example 66, 1-[3,5-Bis(Trifluoromethyl)benzyl]-5-isopropyl-6-(3,5-dimethyl-benzoyl)-2,4-pyrimidinedione]	–	8.14	178 to 180	1.75 (≈ 3.41 µM)
CCc1c(Sc2cc(C)cc(C)c2)n(Cc2cc(F)ccc2F)c(=O)[nH]c1=O [Example 67, 1-(2,5-Difluorobenzyl)-5-ethyl-6-(3,5-dimethylphenyl)thio-2,4-pyrimidinedione]	–	12.40	214 to 216	0.008 (≈ 0.0199 µM)
Cc1cc(C)cc(Sc2c(C(C)C)c(=O)[nH]c(=O)n2Cc2cc(F)ccc2F)c1 [Example 68, 1-(2,5-Difluorobenzyl)-5-isopropyl-6-(3,5-dimethylphenyl)thio-2,4-pyrimidinedione]	–	4.15	192 to 194	0.005 (≈ 0.012 µM)
CCc1c(Oc2cc(C)cc(C)c2)n(Cc2cc(F)ccc2F)c(=O)[nH]c1=O [Example 69, 1-(2,5-Difluorobenzyl)-5-ethyl-6-(3,5-dimethylphenoxy)-2,4-pyrimidinedione]	–	>100.00	231 to 233	0.034 (≈ 0.088 µM)
Cc1cc(C)cc(Oc2c(C(C)C)c(=O)[nH]c(=O)n2Cc2cc(F)ccc2F)c1 [Example 70, 1-(2,5-Difluorobenzyl)-5-isopropyl-6-(3,5-dimethylphenoxy)-2,4-pyrimidinedione]	–	>100.00	214 to 216	0.014 (≈ 0.035 µM)
CCc1c(C(=O)c2cc(C)cc(C)c2)n(Cc2cc(F)ccc2F)c(=O)[nH]c1=O [Example 71, 1-(2,5-Difluorobenzyl)-5-ethyl-6-(3,5-dimethylbenzoyl)-2,4-pyrimidinedione]	–	>100.00	135 to 137	0.004 (≈ 0.01 µM)
Cc1cc(C)cc(C(=O)c2c(C(C)C)c(=O)[nH]c(=O)n2Cc2cc(F)ccc2F)c1 [Example 72, 1-(2,5-Difluorobenzyl)-5-isopropyl-6-(3,5-dimethylbenzoyl)-2,4-pyrimidinedione]	–	5.26	205 to 207	0.003 (≈ 0.00727 µM)
CCc1c(Sc2cc(C)cc(C)c2)n(Cc2cc(F)cc(F)c2)c(=O)[nH]c1=O [Example 73, 1-(3,5-Difluorobenzyl)-5-ethyl-6-(3,5-dimethylphenyl)thio-2,4-pyrimidinedione]	–	>100.00	219 to 221	0.016 (≈ 0.0398 µM)
Cc1cc(C)cc(Sc2c(C(C)C)c(=O)[nH]c(=O)n2Cc2cc(F)cc(F)c2)c1 [Example 74, 1-(3,5-Difluorobenzyl)-5-isopropyl-6-(3,5-dimethylphenyl)thio-2,4-pyrimidinedione]	–	10.50	203 to 205	0.013 (≈ 0.0312 µM)
CCc1c(Oc2cc(C)cc(C)c2)n(Cc2cc(F)cc(F)c2)c(=O)[nH]c1=O [Example 75, 1-(3,5-Difluorobenzyl)-5-ethyl-6-(3,5-dimethylphenoxy)-2,4-pyrimidinedione]	–	14.30	178 to 180	> 14.3
Cc1cc(C)cc(Oc2c(C(C)C)c(=O)[nH]c(=O)n2Cc2cc(F)cc(F)c2)c1 [Example 76, 1-(3,5-Difluorobenzyl)-5-isopropyl-6-(3,5-dimethylphenoxy)-2,4-pyrimidinedione]	–	12.10	186 to 189	0.022 (≈ 0.0549 µM)
